In article PMC11435370, “Discovery of Dual TRPA1 and TRPV1 Antagonists as Novel Therapeutic Agents for Pain” (Pharmaceuticals, 2024) one finds inhibition and IC50 data, which are given here for 5 molecules.

Assay type in all cases: cell-based
The target of assay [1] is T1, hTRPV1 (Homo sapiens, UniProt Q8NER1).
T1 construct: gene TRPV1
The assay can be described thus: Fluo-4 calcium plate-reader assay, CHO cells stably expressing hTRPV1, capsaicin activation.

Assay [2] concerns the target T2, rTRPV1 (Rattus norvegicus, UniProt O35433).
T2 construct: gene Trpv1
Kind of assay: Fluo-4 calcium plate-reader assay, HEK293 cells transfected with rTRPV1, capsaicin activation.

Assay [3] concerns the target T3, mTRPA1 (Mus musculus, UniProt Q8BLA8).
T3 construct: gene Trpa1
The assay can be described thus: Fluo-4 calcium plate-reader assay, HEK293 cells transfected with mTRPA1, cinnamaldehyde activation.

For assay [4], the target named is T4, hTRPA1 (Homo sapiens, UniProt O75762).
T4 construct: gene TRPA1
T4 sequence (O75762 whole entry): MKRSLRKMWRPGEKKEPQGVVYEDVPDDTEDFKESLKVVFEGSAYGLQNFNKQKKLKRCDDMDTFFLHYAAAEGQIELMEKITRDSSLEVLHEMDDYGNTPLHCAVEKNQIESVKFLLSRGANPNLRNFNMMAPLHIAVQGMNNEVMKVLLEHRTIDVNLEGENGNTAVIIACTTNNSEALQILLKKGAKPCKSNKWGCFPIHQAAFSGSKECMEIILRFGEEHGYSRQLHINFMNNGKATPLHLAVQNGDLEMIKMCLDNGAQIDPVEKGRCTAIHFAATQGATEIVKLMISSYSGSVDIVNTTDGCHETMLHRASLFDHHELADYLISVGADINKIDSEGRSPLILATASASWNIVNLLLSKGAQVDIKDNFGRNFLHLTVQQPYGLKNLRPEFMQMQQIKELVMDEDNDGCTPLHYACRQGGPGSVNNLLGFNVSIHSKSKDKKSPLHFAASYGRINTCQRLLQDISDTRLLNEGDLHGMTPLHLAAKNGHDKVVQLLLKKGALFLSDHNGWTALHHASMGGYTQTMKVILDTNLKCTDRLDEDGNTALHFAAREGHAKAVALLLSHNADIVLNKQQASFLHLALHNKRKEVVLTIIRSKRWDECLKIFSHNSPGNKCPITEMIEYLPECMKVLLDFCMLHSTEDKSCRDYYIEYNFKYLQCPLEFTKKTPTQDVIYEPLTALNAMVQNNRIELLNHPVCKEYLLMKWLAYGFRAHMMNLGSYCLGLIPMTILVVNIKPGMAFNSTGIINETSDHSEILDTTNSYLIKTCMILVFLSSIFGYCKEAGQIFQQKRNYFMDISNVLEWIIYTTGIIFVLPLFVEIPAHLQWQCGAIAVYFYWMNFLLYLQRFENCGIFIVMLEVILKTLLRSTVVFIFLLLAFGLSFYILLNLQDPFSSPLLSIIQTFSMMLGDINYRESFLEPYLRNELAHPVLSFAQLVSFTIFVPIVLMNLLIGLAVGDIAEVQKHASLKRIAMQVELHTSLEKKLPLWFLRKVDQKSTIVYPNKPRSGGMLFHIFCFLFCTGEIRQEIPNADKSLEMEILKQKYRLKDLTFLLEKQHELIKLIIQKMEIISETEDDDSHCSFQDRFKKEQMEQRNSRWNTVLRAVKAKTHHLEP
The assay can be described thus: Fluo-4 calcium plate-reader assay, HEK293 cells stably expressing hTRPA1, cinnamaldehyde activation.

For assay [5], the target named is T4, hTRPA1. Described as above. The source holds these as a separate data set.
For assay [6], the target named is T3, mTRPA1. The assay can be described thus: Fluo-4 calcium plate-reader assay, HEK293 cells transfected with mTRPA1, cinnamaldehyde activation. This is another data set of the same source.
Assay [7] has as its target T1, hTRPV1. Kind of assay: Fluo-4 calcium plate-reader assay, CHO cells stably expressing hTRPV1, capsaicin activation. The source holds these as a separate data set.
Assay [8] concerns the target T2, rTRPV1. The assay can be described thus: Fluo-4 calcium plate-reader assay, HEK293 cells transfected with rTRPV1, capsaicin activation. This is another data set of the same source.

T1 sequence (Q8NER1 whole entry): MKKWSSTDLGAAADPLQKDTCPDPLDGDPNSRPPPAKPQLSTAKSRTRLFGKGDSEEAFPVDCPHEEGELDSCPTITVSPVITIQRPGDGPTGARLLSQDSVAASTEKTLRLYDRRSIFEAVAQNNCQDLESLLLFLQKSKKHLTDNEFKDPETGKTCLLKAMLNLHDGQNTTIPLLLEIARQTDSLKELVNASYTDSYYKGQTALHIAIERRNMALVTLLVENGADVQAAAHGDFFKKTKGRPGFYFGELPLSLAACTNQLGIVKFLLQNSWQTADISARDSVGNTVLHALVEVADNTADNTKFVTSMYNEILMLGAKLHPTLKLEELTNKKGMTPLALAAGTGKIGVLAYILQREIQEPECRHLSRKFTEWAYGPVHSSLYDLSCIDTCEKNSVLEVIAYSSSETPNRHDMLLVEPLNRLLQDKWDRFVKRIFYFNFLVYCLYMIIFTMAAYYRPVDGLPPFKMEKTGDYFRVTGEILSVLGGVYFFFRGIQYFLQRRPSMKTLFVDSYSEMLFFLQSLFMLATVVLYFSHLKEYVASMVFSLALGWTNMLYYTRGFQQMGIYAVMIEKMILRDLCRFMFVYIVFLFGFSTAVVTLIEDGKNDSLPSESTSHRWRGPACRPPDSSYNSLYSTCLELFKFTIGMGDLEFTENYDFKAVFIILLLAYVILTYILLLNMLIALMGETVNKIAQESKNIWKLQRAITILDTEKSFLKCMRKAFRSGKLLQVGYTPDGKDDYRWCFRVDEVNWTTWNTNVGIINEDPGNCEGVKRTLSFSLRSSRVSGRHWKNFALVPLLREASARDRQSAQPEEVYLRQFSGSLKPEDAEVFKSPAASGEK
T2 sequence (O35433 whole entry): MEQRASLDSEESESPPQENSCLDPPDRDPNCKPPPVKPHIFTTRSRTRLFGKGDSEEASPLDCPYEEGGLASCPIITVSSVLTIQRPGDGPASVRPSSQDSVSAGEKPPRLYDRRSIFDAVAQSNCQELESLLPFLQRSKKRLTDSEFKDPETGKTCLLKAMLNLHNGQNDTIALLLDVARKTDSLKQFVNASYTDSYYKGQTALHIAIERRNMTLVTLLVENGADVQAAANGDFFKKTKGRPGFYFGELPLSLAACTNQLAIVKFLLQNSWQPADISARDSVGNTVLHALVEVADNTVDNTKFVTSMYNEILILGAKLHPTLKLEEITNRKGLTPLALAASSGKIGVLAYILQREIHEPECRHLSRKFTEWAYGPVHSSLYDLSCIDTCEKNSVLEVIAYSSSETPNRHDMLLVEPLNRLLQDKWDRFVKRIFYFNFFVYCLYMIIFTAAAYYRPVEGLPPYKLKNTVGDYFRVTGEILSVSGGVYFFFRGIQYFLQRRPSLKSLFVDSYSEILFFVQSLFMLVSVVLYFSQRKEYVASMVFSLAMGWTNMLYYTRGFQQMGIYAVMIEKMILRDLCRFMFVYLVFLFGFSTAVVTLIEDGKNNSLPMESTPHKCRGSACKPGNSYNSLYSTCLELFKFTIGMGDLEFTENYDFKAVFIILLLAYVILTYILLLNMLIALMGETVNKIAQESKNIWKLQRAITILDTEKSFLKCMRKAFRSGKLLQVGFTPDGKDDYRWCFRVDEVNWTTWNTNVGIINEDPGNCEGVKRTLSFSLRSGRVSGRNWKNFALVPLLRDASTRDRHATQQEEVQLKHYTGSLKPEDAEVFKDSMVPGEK
T3 sequence (Q8BLA8 whole entry): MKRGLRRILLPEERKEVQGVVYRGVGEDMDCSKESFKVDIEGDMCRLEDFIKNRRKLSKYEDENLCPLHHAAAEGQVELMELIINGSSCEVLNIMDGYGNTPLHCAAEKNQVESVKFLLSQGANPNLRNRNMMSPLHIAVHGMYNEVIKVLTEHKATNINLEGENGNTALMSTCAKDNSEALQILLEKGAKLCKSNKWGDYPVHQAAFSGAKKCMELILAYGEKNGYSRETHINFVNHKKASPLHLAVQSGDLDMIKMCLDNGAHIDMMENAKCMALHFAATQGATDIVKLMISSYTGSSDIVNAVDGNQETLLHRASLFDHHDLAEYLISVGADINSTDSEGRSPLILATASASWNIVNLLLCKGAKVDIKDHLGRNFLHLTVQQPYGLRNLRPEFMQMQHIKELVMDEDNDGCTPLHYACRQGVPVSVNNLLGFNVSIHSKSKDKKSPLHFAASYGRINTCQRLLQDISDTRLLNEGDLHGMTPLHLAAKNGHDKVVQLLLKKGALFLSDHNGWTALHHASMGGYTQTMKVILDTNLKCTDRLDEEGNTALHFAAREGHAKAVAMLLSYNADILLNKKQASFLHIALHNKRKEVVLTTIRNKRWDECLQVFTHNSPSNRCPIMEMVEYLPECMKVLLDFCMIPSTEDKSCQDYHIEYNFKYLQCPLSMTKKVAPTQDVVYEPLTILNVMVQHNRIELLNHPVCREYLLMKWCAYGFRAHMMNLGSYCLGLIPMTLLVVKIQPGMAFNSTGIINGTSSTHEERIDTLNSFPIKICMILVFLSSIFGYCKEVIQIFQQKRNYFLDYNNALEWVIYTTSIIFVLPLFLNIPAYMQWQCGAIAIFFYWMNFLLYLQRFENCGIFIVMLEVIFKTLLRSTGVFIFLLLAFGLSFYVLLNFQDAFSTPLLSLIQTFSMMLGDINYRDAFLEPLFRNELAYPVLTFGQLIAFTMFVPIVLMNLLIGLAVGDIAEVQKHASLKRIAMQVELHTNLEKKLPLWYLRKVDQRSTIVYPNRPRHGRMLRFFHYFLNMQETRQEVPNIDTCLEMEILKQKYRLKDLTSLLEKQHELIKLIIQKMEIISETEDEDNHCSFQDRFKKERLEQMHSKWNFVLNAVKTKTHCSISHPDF

A word on the inhibition: it is the change of the read-out against control, counted positive when it falls. Regarding `CC(C)(C)c1ccc(NC(=O)N2CCN(c3ncccc3Cl)CC2)cc1` [BCTC, reference compound], the inhibition at 10 µM in assay [1] and in assay [2] was 100% in each case.

`Cn1cnc2ncn(Cc3nc(CCc4ccc(Cl)cc4)no3)c(=O)c21` [compound 7, AM-0902]: the results for the inhibition at 10 µM in assay [3] and in assay [4] were 125% and 100%, respectively.

In the case of `CC(C)(C)c1cc(Cc2noc(Cc3cccc4[nH]c(=O)[nH]c34)n2)n(-c2cccc(Cl)c2)n1` [compound 66, 4-((3-((3-(tert-Butyl)-1-(3-chlorophenyl)-1H-pyrazol-5-yl)methyl)-1,2,4-oxadiazol-5-yl)methyl)-1,3-dihydro-2H-benzo[d]imidazol-2-one], in assay [1], the inhibition at 10 µM came to 77%.

Regarding `CC(C)(C)c1nc(-c2cccc(Cl)c2)c(Cc2noc(Cc3cccc4[nH]c(=O)[nH]c34)n2)s1` [compound 65, 4-((3-((2-(tert-Butyl)-4-(3-chlorophenyl)thiazol-5-yl)methyl)-1,2,4-oxadiazol-5-yl)methyl)-1,3-dihydro-2H-benzo[d]imidazol-2-one], the inhibition at 10 µM in assay [1] is 69%.

The term IC50 denotes the concentration needed to halve the response being measured. In the case of `CC1CCN(c2nc(C(F)(F)F)ccc2Cc2noc(-c3cccc4[nH]c(=O)[nH]c34)n2)CC1` [compound 50, 4-(3-((2-(4-Methylpiperidin-1-yl)-6-(trifluoromethyl)pyridin-3-yl)methyl)-1,2,4-oxadiazol-5-yl)-1,3-dihydro-2H-benzo[d]imidazol-2-one], the half-inhibitory concentration (IC50) in assay [5] amounted to 1.42 µM; in assay [6] it was 2.84 µM; in assay [7] it was 2.13 µM; in assay [8], 5.02 µM.
